From patent publication US9751861B2, “N1-(3,3,3-trifluoro-2-hydroxo-2-methylpropionyl)-piperidine derivatives as inhibitors of pyruvate dehydrogenase kinase” (MERCK PATENT GMBH, priority 2013, dated 2017)

What was measured:
human PDHK2 (12-407) = target: T1, human PDHK2 (12-407) (Homo sapiens, UniProt Q15119); assay: Isothermal titration calorimetry (ITC) binding; conditions: 30° C., pH 7.5
T1 construct: The human PDHK2 (12-407) was produced in E. coli; His-tag (cleaved yes); made in house; host or cells: E. coli
Procedure: Isothermal Titration Calorimetry
ITC measurements were performed with a VP-ITC micro calorimeter (Microcal, LLC/GE Healthcare Bio-Sciences AB, Uppsala, Sweden). In general titrations were performed by titrating the protein (50 μM) to the test compound (5 μM) in 12 μl injections. All binding experiments were carried out at 30° C. In general the test compounds were diluted form DMSO stock solutions into the measurement buffer with a maximum final concentration of 1% DMSO. The measurement buffer was 20 mM HEPES, 135 mM KCl, 1 mM TCEP, 2 mM MgCl2, 15 mM NaH2PO4, pH 7.5. The human PDHK2 (12-407) was produced in E. coli as his-tagged protein and purified by affinity chromatography. The tag was removed by side specific proteolysis. Before titration the protein buffer was changed to the measurement buffer containing the same DMSO concentration as the test compound dilution. ITC data analysis was performed using Origin 7 calorimetry software from the same supplier. For most measurements a binding model of one binding site was assumed. According to the applied mathematical model it is possible to calculate the binding constant (KA), the observed binding enthalpy (ΔH^obs) as well as the stoichiometry (N) of the formed complex. Preceding analysis the raw data was corrected for the heats of dilution by extrapolating from the saturation value from the end of titration. In order to allow for direct comparison between the respective experimental series and protein preparations the protein concentration was corrected by referencing titrations to a well behaved standard inhibitor. The apparent stoichiometry values defined the fraction of binding competent protein and compensated for relative errors in protein concentration measurements. This corrected protein concentration was used to set up ITC experiment series with test compounds. Any deviations from ideal 1:1 stoichiometry observed here were attributed to errors in compound concentration. This nominal compound concentration was corrected as well to achieve 1:1 stoichiometry in the fit.

PDHK2 = target: T2, PDHK2 (Homo sapiens, UniProt Q15119); assay: Biochemical activity testing of PDHK2: PDC inactivation assay; conditions: human rec PDHK2, PDC from porcine heart, ATP 5 μM; read-out: IC50 PDHK2 (enzyme assay)
T2 construct: purchased Carna Bioscience
Source text: Biochemical Activity Testing of PDHK2: PDC Inactivation Assay
The biochemical activity assay for PDHK2 is based on the inactivation of PDC through phosphorylation by PDHK2. The assay is run in two steps: the enzymatic PDHK2 reaction in which isolated PDC is phosphorylated by PDHK2 with ATP as co-substrate and the PDC activity assay in which pyruvate and NAD are converted to acetyl-CoA and NADH. The PDC activity correlates to the increase in NADH and thereby is detectable directly via the increasing fluorescence signal (Exc 340 nm, Em 450 nm). Inhibition of PDHK2 results in a lower phosphorylation status and thereby a less decrease in activity of PDC and a stronger increase in NADH fluorescence signal.
The PDC inactivation assay is performed in Greiner 384-well microtiter plates and is used for high throughput screen. 4 μl of PDHK2 (human, rec, Carna Bioscience, 10 ng/μl-137 nM final concentration) and PDC (isolated from porcine heart, Sigma-Aldrich, 20 mU/ml final concentration) are incubated in the absence or presence of the test compound (10 dilution concentrations) for 30 min at room temperature in kinase buffer (15 mM potassium phosphate buffer, pH 7.0, 60 mM KCl, 1.5 mM DTT, 2.5 mM MgCl2, 0.0125% (w/v) BSA, 0.125% Pluronic F-68). The kinase reaction is started by the addition of 4 μl ATP substrate solution (fc 5 μM in kinase buffer). After 30 min incubation at 37° C. 40 μl of PDC reaction solution (100 mM Tris/HCl, pH 7.8, 0.5 mM EDTA, 1 mM MgCl2, 50 mM NaF, 0.25 mM Coenzyme A, 5 mM pyruvate, 1 mM NAD, 5 mM DTT, […] thiamine pyrophosphate) is added. The first fluorescence measurement is performed on a Perkin Elmer Envision (Exc 340 nm, Em 450 nm). The reaction is incubated for 45 min at room temperature. Afterwards a second fluorescence measurement is performed and the PDC activity is calculated by the difference between both measurements. As full value for the PDHK2 assay the inhibitor-free PDHK2 reaction is used. The pharmacological zero value used is DCA (Sigma-Aldrich) in a final concentration of 3 mM. The inhibitory values (IC50) were determined using either the program Symyx Assay Explorer® or Condosseo® from GeneData.

Compound	Kd (human PDHK2 (12-407)) [nM]	IC50 (PDHK2) [nM]
C[C@@](O)(C(=O)N1CCC(n2nccc2-c2ccccc2)CC1)C(F)(F)F [Compound A66, (R)-3,3,3-Trifluoro-2-hydroxy-2-methyl-1-[4-(5-phenyl-pyrazol-1-yl)-piperidin-1-yl]-propan-1-one]	300 to 3000	300 to 3000
C[C@@](O)(C(=O)N1CCC(c2ccn(-c3ncc(Cl)cn3)n2)CC1)C(F)(F)F [Compound A103, (R)-1-{4-[1-(5-Chloro-pyrimidin-2-yl)-1H-pyrazol-3-yl]-piperidin-1-yl}-3,3,3-trifluoro-2-hydroxy-2-methyl-propan-1-one]	–	3000 to 50000
C[C@@](O)(C(=O)N1CCC(c2nccn2-c2ccc(Cl)cc2)CC1)C(F)(F)F [Compound A69, (R)-1-{4-[1-(4-Chloro-phenyl)-1H-imidazol-2-yl]-piperidin-1-yl}-3,3,3-trifluoro-2-hydroxy-2-methyl-propan-1-one]	–	300 to 3000
CC(C)Cn1ccc(C2CCN(C(=O)[C@@](C)(O)C(F)(F)F)CC2)n1 [Compound A114, (R)-3,3,3-Trifluoro-2-hydroxy-1-[4-(1-isobutyl-1H-pyrazol-3-yl)-piperidin-1-yl]-2-methyl-propan-1-one]	–	300 to 3000
C[C@H]1CN(C(=O)[C@@](C)(O)C(F)(F)F)CC[C@H]1c1ccnn1-c1ccc(F)cc1 [Compound A108, (R)-3,3,3-Trifluoro-1-{(3R,4R)-4-[2-(4-fluoro-phenyl)-2H-pyrazol-3-yl]-3-methyl-piperidin-1-yl}-2-hydroxy-2-methyl-propan-1-one]	300 to 3000	300 to 3000
C[C@@](O)(C(=O)N1CCC(c2ccnn2-c2ccccc2C(F)(F)F)CC1)C(F)(F)F [Compound A89, (R)-3,3,3-Trifluoro-2-hydroxy-2-methyl-1-[4-[2-[2-(trifluoromethyl)phenyl]-2H-pyrazol-3-yl]-1-piperidyl]propan-1-one]	–	300 to 3000
COc1ccc(-n2ccc(C3CCN(C(=O)[C@@](C)(O)C(F)(F)F)CC3)n2)nn1 [Compound A105, (R)-3,3,3-Trifluoro-2-hydroxy-1-{4-[1-(6-methoxy-pyridazin-3-yl)-1H-pyrazol-3-yl]-piperidin-1-yl}-2-methyl-propan-1-one]	300 to 3000	300 to 3000
COc1ccc(-n2ccnc2C2CCN(C(=O)[C@@](C)(O)C(F)(F)F)CC2)cc1 [Compound A70, (R)-3,3,3-Trifluoro-2-hydroxy-1-{4-[1-(4-methoxy-phenyl)-1H-imidazol-2-yl]-piperidin-1-yl}-2-methyl-propan-1-one]	300 to 3000	300 to 3000
COc1cc(F)ccc1-n1nccc1C1CCN(C(=O)[C@@](C)(O)C(F)(F)F)CC1 [Compound A90, (R)-3,3,3-Trifluoro-1-{4-[2-(4-fluoro-2-methoxy-phenyl)-2H-pyrazol-3-yl]-piperidin-1-yl}-2-hydroxy-2-methyl-propan-1-one]	–	300 to 3000
C[C@@](O)(C(=O)N1CCC(n2cnnc2-c2ccc(Cl)cc2)CC1)C(F)(F)F [Compound A56, (R)-1-{4-[3-(4-Chloro-phenyl)-[1,2,4]triazol-4-yl]-piperidin-1-yl}-3,3,3-trifluoro-2-hydroxy-2-methyl-propan-1-one]	300 to 3000	300 to 3000

Further lines, results first:

Kd (human PDHK2 (12-407)) [nM]	IC50 (PDHK2) [nM]	Compound
300 to 3000	300 to 3000	Cc1cc(C2CCN(C(=O)[C@@](C)(O)C(F)(F)F)CC2)nn1-c1ccc(Cl)cc1 [Compound A34, (R)-1-{4-[1-(4-Chloro-phenyl)-5-methyl-1H-pyrazol-3-yl]-piperidin-1-yl}-3,3,3-trifluoro-2-hydroxy-2-methyl-propan-1-one]
300 to 3000	300 to 3000	C[C@@](O)(C(=O)N1CCC(c2ccn(-c3ccc(Cl)cn3)n2)CC1)C(F)(F)F [Compound A29, (R)-1-{4-[1-(5-Chloro-pyridin-2-yl)-1H-pyrazol-3-yl]-piperidin-1-yl}-3,3,3-trifluoro-2-hydroxy-2-methyl-propan-1-one]
< 300	300 to 3000	C[C@@](O)(C(=O)N1CCC(c2ccnn2C2CC2)CC1)C(F)(F)F [Compound A74, (R)-1-[4-(2-Cyclopropyl-2H-pyrazol-3-yl)-1-piperidyl]-3,3,3-trifluoro-2-hydroxy-2-methyl-propan-1-one]
300 to 3000	300 to 3000	C[C@@](O)(C(=O)N1CCC(c2cnnn2-c2ccc(Cl)cc2)CC1)C(F)(F)F [Compound A58, (R)-1-{4-[3-(4-Chloro-phenyl)-3H-[1,2,3]triazol-4-yl]-piperidin-1-yl}-3,3,3-trifluoro-2-hydroxy-2-methyl-propan-1-one]
300 to 3000	300 to 3000	Cc1ccc(-n2ccnc2C2CCN(C(=O)[C@@](C)(O)C(F)(F)F)CC2)cc1 [Compound A68, (R)-3,3,3-Trifluoro-2-hydroxy-2-methyl-1-[4-(1-p-tolyl-1H-imidazol-2-yl)piperidin-1-yl]-propan-1-one]
300 to 3000	300 to 3000	C[C@@](O)(C(=O)N1CCC(c2nncn2-c2ccc(F)cc2)CC1)C(F)(F)F [Compound A71, (R)-3,3,3-Trifluoro-1-{4-[4-(4-fluoro-phenyl)-4H-[1,2,4]triazol-3-yl]-piperidin-1-yl}-2-hydroxy-2-methyl-propan-1-one]
300 to 3000	300 to 3000	Cn1nccc1C1CCN(C(=O)[C@@](C)(O)C(F)(F)F)CC1 [Compound A52, (R)-3,3,3-Trifluoro-2-hydroxy-2-methyl-1-[4-(2-methyl-2H-pyrazol-3-yl)piperidin-1-yl]-propan-1-one]
300 to 3000	300 to 3000	C[C@@](O)(C(=O)N1CCC(c2nncn2-c2ccccc2)CC1)C(F)(F)F [Compound A72, (R)-3,3,3-Trifluoro-2-hydroxy-2-methyl-1-[4-(4-phenyl-4H-[1,2,4]triazol-3-yl)piperidin-1-yl]-propan-1-one]
300 to 3000	300 to 3000	Cc1ccc(-n2nncc2C2CCN(C(=O)[C@@](C)(O)C(F)(F)F)CC2)c(F)c1 [Compound A60]
300 to 3000	300 to 3000	C[C@@](O)(C(=O)N1CCC(c2nccn2-c2ccc(F)cc2)CC1)C(F)(F)F [Compound A67, (R)-3,3,3-Trifluoro-1-{4-[1-(4-fluoro-phenyl)-1H-imidazol-2-yl]-piperidin-1-yl}-2-hydroxy-2-methyl-propan-1-one]
300 to 3000	300 to 3000	C[C@@](O)(C(=O)N1CCC(c2ccnn2-c2ccon2)CC1)C(F)(F)F [Compound A122, (R)-3,3,3-Trifluoro-2-hydroxy-1-[4-(2-isoxazol-3-yl-2H-pyrazol-3-yl)-piperidin-1-yl]-2-methyl-propan-1-one]
< 300	< 300	Cc1cc(C2CCN(C(=O)[C@@](C)(O)C(F)(F)F)CC2)n(-c2ccc(Cl)cc2)n1 [Compound A50, (R)-1-{4-[2-(4-Chloro-phenyl)-5-methyl-2H-pyrazol-3-yl]-piperidin-1-yl}-3,3,3-trifluoro-2-hydroxy-2-methyl-propan-1-one]
